Columns and labels:
Assay in all cases: relative viability (nuclei count vs DMSO), 5 days (fraction); higher = more cells survive
[1] = compound: Nc1ncn([C@H]2C[C@H](O)[C@@H](CO)O2)c(=O)n1 [Decitabine] + Cc1cc(Nc2cc(N3CCN(C)CC3)nc(Sc3ccc(NC(=O)C4CC4)cc3)n2)n[nH]1 [Tozasertib] (partner 0.1 µM)
How it was run: (§1)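 Dosing by pin tool came one day after lung cancer cell lines were seeded in 1536-well plates, using either one drug or a fixed anchor-drug dose plus five library-drug doses (not always all listed) in √10 steps. After 5 days, nuclei were counted on 4× images. Relative viability is treated-well nuclei count divided by vehicle-well nuclei count, and values are medians of duplicate plates.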

[2] = compound: O=C(C[C@H]1NCCC[C@@H]1O)Cn1cnc2cc(Br)c(Cl)cc2c1=O (racemic) [Halofuginone] + CC(=O)Nc1cccc(-n2c(=O)n(C3CC3)c(=O)c3c(Nc4ccc(I)cc4F)n(C)c(=O)c(C)c32)c1 [Trametinib] (partner 0.02 µM)
How it was run: as §1

[3] = compound: O=C(C[C@H]1NCCC[C@@H]1O)Cn1cnc2cc(Br)c(Cl)cc2c1=O (racemic) [Halofuginone] + CC1(C)CCC(c2ccc(Cl)cc2)=C(CN2CCN(c3ccc(C(=O)NS(=O)(=O)c4ccc(N[C@H](CCN5CCOCC5)CSc5ccccc5)c(S(=O)(=O)C(F)(F)F)c4)cc3)CC2)C1 [Navitoclax] (partner 0.5 µM)
How it was run: as §1

[4] = compound: O=C(C[C@H]1NCCC[C@@H]1O)Cn1cnc2cc(Br)c(Cl)cc2c1=O (racemic) [Halofuginone] + Cc1nc(NC(=O)N2CCC[C@H]2C(N)=O)sc1-c1ccnc(C(C)(C)C(F)(F)F)c1 [Alpelisib] (partner 2 µM)
How it was run: as §1

| Cell Line | relative viability ([1]; first compound 0.04 µM) | relative viability ([1]; first compound 0.1265 µM) | relative viability ([1]; first compound 0.4 µM) | relative viability ([1]; first compound 1.265 µM) | relative viability ([1]; first compound 4 µM) | relative viability ([2]; first compound 0.001 µM) | relative viability ([2]; first compound 0.003162 µM) | relative viability ([2]; first compound 0.01 µM) | relative viability ([2]; first compound 0.03162 µM) | relative viability ([2]; first compound 0.1 µM) | relative viability ([3]; first compound 0.001 µM) | relative viability ([3]; first compound 0.003162 µM) | relative viability ([3]; first compound 0.01 µM) | relative viability ([3]; first compound 0.03162 µM) | relative viability ([3]; first compound 0.1 µM) | relative viability ([4]; first compound 0.001 µM) | relative viability ([4]; first compound 0.003162 µM) | relative viability ([4]; first compound 0.01 µM) | relative viability ([4]; first compound 0.03162 µM) | relative viability ([4]; first compound 0.1 µM) |
| --- | --- | --- | --- | --- | --- | --- | --- | --- | --- | --- | --- | --- | --- | --- | --- | --- | --- | --- | --- | --- |
| HCC-366 | 0.0988 | 0.104 | 0.0711 | 0.0439 | 0.0387 | 0.395 | 0.404 | 0.338 | 0.322 | 0.166 | 1.05 | 1.07 | 1.04 | 1.04 | 0.0551 | 0.369 | 0.412 | 0.449 | 0.385 | 0.197 |
| NCI-H2405 | 0.521 | 0.598 | 0.526 | 0.388 | 0.337 | 0.696 | 0.69 | 0.678 | 0.599 | 0.502 | 0.986 | 0.855 | 0.878 | 0.784 | 0.542 | 0.94 | 0.939 | 0.839 | 0.757 | 0.546 |
| Calu-6 |  |  |  |  |  |  |  |  |  |  | 0.896 | 0.956 | 0.884 | 0.258 | 0.092 | 1.16 | 1.01 | 0.94 | 0.362 | 0.17 |
| 201T | 0.742 | 0.776 | 0.909 |  | 0.587 | 0.71 | 0.715 | 0.703 | 0.723 | 0.663 | 1.22 | 1.15 | 1.24 | 1.13 | 1.28 | 1.04 | 1.01 | 1.01 | 0.998 | 0.841 |
| CAL-12T | 0.292 | 0.268 |  | 0.21 | 0.219 | 0.352 | 0.414 | 0.359 | 0.329 | 0.196 | 1.54 | 1.37 | 1.24 | 0.974 | 0.565 | 1.4 | 1.16 | 1.03 | 1.11 | 1.02 |
| HCC-44 |  | 1.01 | 0.174 | 0.457 | 0.382 | 1.04 | 1.1 | 1.05 | 1.13 | 0.966 | 0.949 | 1.02 | 0.968 | 1.02 | 0.568 | 0.804 | 0.774 | 0.691 | 0.797 | 0.433 |
| NCI-H358 | 0.121 | 0.0951 | 0.0825 | 0.1 | 0.0948 | 0.158 | 0.138 | 0.12 | 0.119 | 0.0998 |  |  |  |  |  | 0.898 | 0.818 | 0.711 | 0.305 | 0.164 |
| SW 900 | 0.288 | 0.297 | 0.222 | 0.182 | 0.15 | 0.871 | 0.941 |  | 1.03 | 0.534 |  |  |  |  |  |  |  |  |  |  |
| NCI-H2087 | 0.229 | 0.194 | 0.176 | 0.129 | 0.153 | 0.219 | 0.213 | 0.222 | 0.197 | 0.156 | 1.01 | 1.09 | 0.94 | 0.799 | 0.682 | 1.12 | 0.98 | 1.14 | 0.935 | 0.612 |

From the supplement of paper PMC10307832
